# Laboratory results published in patent US9228175B2, “Genes encoding a novel type of lysophophatidylcholine acyltransferases and their use to increase triacylglycerol production and/or modify fatty acid composition” (National Research Counsel of Canada, priority 2006, dated 2016).
# What was measured:
# Type in all cases: biochemical
# LCA1 = biological target: T1, LCA1 (Saccharomyces cerevisiae, UniProt Q08548); test: Zn^2+ / Mg^2+ effect on LPCAT activity of LCA1 (in vitro assay, microsomes of lca1Δ over-expressing LCA1); details: for LPCAT activity (% control): 5.6 μM palmitoyl-LPC, 11.25 μM stearyl-CoA, 1.5 μg microsomal protein, pH 7.4, two minutes, mean±S.D.
# T1 construct: Saccharomyces cerevisiae YOR175c ORF was PCR-amplified; made in house; host or cells: S. cerevisiae YOR175c deletion strain Y02431 (lca1Δ), pYES2.1, galactose induction; microsomal fraction
# T1 sequence (Q08548 1-619): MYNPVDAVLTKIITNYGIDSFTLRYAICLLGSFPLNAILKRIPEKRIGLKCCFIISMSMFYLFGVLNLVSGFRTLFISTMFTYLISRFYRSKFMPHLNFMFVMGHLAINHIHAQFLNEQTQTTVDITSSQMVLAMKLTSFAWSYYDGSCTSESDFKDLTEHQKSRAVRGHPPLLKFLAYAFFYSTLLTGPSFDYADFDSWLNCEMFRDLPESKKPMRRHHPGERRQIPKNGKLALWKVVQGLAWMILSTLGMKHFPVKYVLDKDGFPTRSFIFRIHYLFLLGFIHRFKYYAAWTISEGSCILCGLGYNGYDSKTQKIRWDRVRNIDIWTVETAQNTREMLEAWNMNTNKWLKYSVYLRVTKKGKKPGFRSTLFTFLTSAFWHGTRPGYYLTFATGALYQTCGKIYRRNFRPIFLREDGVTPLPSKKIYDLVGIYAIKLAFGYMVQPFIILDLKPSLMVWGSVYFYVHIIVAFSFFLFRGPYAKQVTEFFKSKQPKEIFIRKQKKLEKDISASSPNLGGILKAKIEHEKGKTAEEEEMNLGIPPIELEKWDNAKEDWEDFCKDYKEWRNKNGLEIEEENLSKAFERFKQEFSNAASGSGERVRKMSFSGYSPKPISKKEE
# Protocol: Microsomal preparation: Yeast strains were first grown in 15 ml of SC-Leu-His-Ura medium containing 2% glucose. Protein expression induction was carried out as described in Invitrogen manufacturer manual for yeast expression vector pYES2.1. After 24 hours of growth in SC+2% galactose+1% raffinose induction conditions, the cells were washed, first with distilled water and then with wall-breaking buffer (50 mM Tris-HCl, 1 mM EDTA, 0.6 M sorbitol, pH 7.4, 1 mM DTT). After centrifugation at 4,000 rpm (Eppendorf Centrifuge 5145C), the cells were resuspended in 1 ml wall-breaking buffer with 10 μl yeast protease cocktail (Sigma), and shaken vigorously in the presence of acid-washed glass beads (diameter 0.5 mm). The resultant homogenate was centrifuged at 12,000 rpm for ten minutes at 4° C. The decanted supernatant was further centrifuged at 100,000×g for 90-120 minutes at 4° C. The supernatant was discarded, and the pellet was suspended in homogenization buffer containing 20% glycerol and frozen at −80° C. until use. Protein concentration was measured using Bio-Rad Protein Assay Kit for final enzyme activity calculation.
# In Vitro Assay of LPCAT activity: LPCAT substrate specificity was determined by measuring incorporation of [^14C] lysophosphatidylcholine or [^14C] palmitoyl-CoA into phosphatidylcholine. All assays were performed at least twice. For lysophospholipid substrate specificity assessment, 400 μl HEPES buffer contained 3 μg microsomal protein, 50 μM of lysophospholipid substrates and 112.5 μM [^14C] palmitoyl-CoA (5.5 nCi/nmol). For acyl-CoA substrate selectivity analysis, 400 μl HEPES reaction buffer (pH7.4, 0.1 M) contained 3 μg microsomal protein, 50 μM acyl-CoA and 112.5 μM [^14C] […] (1.35 nCi/nmol). Reaction was allowed for 2 minutes at 30° C. with 100 rpm shaking. The reaction products were extracted with chloroform/methanol (2/1, v/v) and separated with Merck silica G60 TLC plates. Spots corresponding to different phospholipid species products were scraped off and ^14C incorporation were scintillation counted. Different concentrations of ZnCl2 were added in to reactions for Zn^2+ inhibitory effect assay.
# Results are expressed as means±S.D. The lca1Δ over-expressing LCA1 was used to assess Zn^2+ effect. The reactions contained 5.6 μM palmitoyl-LPC (1.35 nCi/nmol), 1.5 μg microsomal proteins, 0.1 M HEPES (pH 7.4), 11.25 μM stearyl-CoA and indicated concentration of ZnCl2. The reaction was stopped after two minutes by adding 2 ml of chloroform/methanol solution (2:1).
# AtLPCAT1 = biological target: T2, AtLPCAT1 (Arabidopsis thaliana, UniProt F4IDU4); test: Zn^2+ sensitivity of AtLPCAT1, in vitro LPCAT assay; details: increasing ZnCl2; 25 μM palmitoyl-LPC, 25 μM stearyl-CoA, 20 μg microsomal protein, pH 7.4
# T2 construct: made in house; host or cells: S. cerevisiae YOR175c deletion strain BY02431 (lca1Δ), pYES2.1 TOPO, galactose induction; microsomal protein
# T2 sequence (F4IDU4 1-462): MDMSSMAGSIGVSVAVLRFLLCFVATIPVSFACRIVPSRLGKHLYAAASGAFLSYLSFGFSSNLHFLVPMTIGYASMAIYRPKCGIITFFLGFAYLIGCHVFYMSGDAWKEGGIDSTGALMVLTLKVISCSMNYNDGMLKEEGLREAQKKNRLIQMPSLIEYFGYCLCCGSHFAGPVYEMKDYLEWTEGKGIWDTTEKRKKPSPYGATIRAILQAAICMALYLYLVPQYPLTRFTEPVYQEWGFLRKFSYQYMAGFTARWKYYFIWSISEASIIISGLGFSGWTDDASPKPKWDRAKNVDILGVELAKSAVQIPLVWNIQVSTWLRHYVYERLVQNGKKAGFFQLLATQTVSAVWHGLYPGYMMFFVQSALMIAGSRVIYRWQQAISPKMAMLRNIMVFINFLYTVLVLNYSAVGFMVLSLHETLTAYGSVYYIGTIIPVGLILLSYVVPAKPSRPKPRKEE
# Protocol: (§1) FIG. 19 is a graph depicting the inhibitory effect of Zn^2+ on AtLPCATs activity. The lca1Δ over-expressing AtLPCATs was used to asses Zn^2+ effect. The reactions contained 25 μM palmitoyl-LPC (1.35 nCi/nmol), 20 μg microsomal proteins, 0.1 M HEPES (pH 7.4), 25 μM stearyl-CoA and indicated concentration of ZnCl2.
# (§2) AtLPCAT substrate specificity was determined by counting incorporation of 14C-labeled lysophosphatidylcholine or 14C-labeled palmitoyl-CoA into phosphatidylcholine. All assays were performed at least twice. […] reaction mixture contained […] microsomal protein, […] acyl-CoA and […], pH7.4. 14C-lysophosphatidylcholine (1.4 nCi/nmol) or 14C-palmityl-CoA (5.5 nCi/nmol) was used to assess fatty-CoA or lyso-lipid substrate specificity. Reaction was allowed for ten minutes at 30° C. All radiolabel chemicals for these assays were purchased from ARC, Inc.
# AtLPCAT2 = biological target: T3, AtLPCAT2 (Arabidopsis thaliana, UniProt Q9CAN8); test: Zn^2+ sensitivity of AtLPCAT2, in vitro LPCAT assay; details: increasing ZnCl2; 25 μM palmitoyl-LPC, 25 μM stearyl-CoA, 20 μg microsomal protein, pH 7.4
# T3 construct: made in house; host or cells: S. cerevisiae YOR175c deletion strain BY02431 (lca1Δ), pYES2.1 TOPO, galactose induction; microsomal protein
# T3 sequence (Q9CAN8 1-465): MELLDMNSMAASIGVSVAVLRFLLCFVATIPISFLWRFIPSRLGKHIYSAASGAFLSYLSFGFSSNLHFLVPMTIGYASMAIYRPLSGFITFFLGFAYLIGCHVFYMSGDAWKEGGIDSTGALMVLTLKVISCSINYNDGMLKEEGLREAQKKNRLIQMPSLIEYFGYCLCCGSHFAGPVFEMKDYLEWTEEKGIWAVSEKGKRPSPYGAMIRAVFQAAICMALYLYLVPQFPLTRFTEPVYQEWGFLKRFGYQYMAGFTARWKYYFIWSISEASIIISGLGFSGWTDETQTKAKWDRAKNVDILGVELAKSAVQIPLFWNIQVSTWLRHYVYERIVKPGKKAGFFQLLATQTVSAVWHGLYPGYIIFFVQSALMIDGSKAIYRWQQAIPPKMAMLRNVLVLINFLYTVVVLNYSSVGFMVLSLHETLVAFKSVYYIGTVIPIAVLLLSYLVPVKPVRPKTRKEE
# Protocol: as §1, §2
smiles,measurement,setting,value
[Cl-].[Cl-].[Zn+2] [ZnCl2],Concentration at which the maximum increase of LPCAT activity was observed,LCA1,25 µM
same,LPCAT activity (% control),LCA1; 5 μM ZnCl2,98 ± 5.9 % control
same,LPCAT activity (% control),LCA1; 10 μM ZnCl2,136.8 ± 3.9 % control
same,LPCAT activity (% control),LCA1; 25 μM ZnCl2,149.7 ± 12.0 % control
same,LPCAT activity (% control),LCA1; 0.1 mM ZnCl2,35 ± 22.4 % control
same,LPCAT activity (% control),LCA1; 20 mM ZnCl2,6 ± 2.0 % control
same,Effect on LPCAT activity of LCA1,LCA1; lower (10-25 μM) concentration,enhanced LPCAT activity
same,Effect on LPCAT activity of LCA1,LCA1; range between 0.1 mM to 20 mM,significant reduction
same,AtLPCAT1 activity with Zn^2+ added,AtLPCAT1,decreased with increasing concentration
same,AtLPCAT2 activity with Zn^2+ added,AtLPCAT2,decreased with increasing concentration
